These results are taken from the NIST ThermoML archive (doi:10.1021/acs.jced.9b00375).

The conditions of data set [1]: 298.15 K; 101.3 kPa; Liquid; Vibrating tube method.
A short description of data set [2]: wn = mass fraction of the nth substance listed. The note with it: 298.15 K, 101.3 kPa, Liquid, Vibrating tube method.

± gives the expanded uncertainty stated by the source.

As to `CCCCCCC` [heptane], the mass density (in general, mass per unit of volume) in data set [1] is listed as 679 ± 16 kg/m3.

For the compound `CCCCCC` [hexane], the mass density in data set [1] was determined as 668 ± 16 kg/m3. For `NCCO.O=CO` [2-hydroxyethylammonium formate] + CCCCCCCC, the mass density in data set [2] (w2 = 0.0035) is 1192.6 ± 16 kg/m3; in data set [2] (w2 = 0.9955) it was 699.5 ± 16 kg/m3; in data set [2] (w2 = 0.9971), 699.7 ± 16 kg/m3.

For `NCCO.O=CO` [2-hydroxyethylammonium formate] + CCCCCCC, the mass density in data set [2] (w2 = 0.0045) was found to be 1183 ± 16 kg/m3; in data set [2] (w2 = 0.9989), 680 ± 16 kg/m3. As to `CCCCCCCC` [octane], the mass density in data set [1] is 698.7 ± 16 kg/m3. In the case of `CO` [methanol], the mass density in data set [1] was 786.7 ± 16 kg/m3. With `NCCO.O=CO` [2-hydroxyethylammonium formate] + CCCCC, in data set [2] (w2 = 0.9491), the mass density is given as 625.1 ± 16 kg/m3.

As for `CCO` [ethanol], in data set [1], the mass density is given as 785.7 ± 16 kg/m3. In the case of `NCCO.O=CO` [2-hydroxyethylammonium formate], the mass density in data set [1] is recorded as 1215 ± 16 kg/m3. For `NCCO.O=CO` [2-hydroxyethylammonium formate] + CCCCCC, the mass density worked out at 1182.7 ± 16 kg/m3 in data set [2] (w2 = 0.0028), 1194.1 ± 16 kg/m3 in data set [2] (w2 = 0.0063), 655.6 ± 16 kg/m3 in data set [2] (w2 = 0.997) and 663.6 ± 16 kg/m3 in data set [2] (w2 = 0.9982). `CCCCC` [pentane]: in data set [1], the mass density was found to be 621.3 ± 16 kg/m3.
